{
  "source": "ChEMBL document CHEMBL1201862",
  "about": "“PubChem BioAssay data set” (2004)",
  "key": {"[1]": {"biological_target": "1-phosphatidylinositol 4,5-bisphosphate phosphodiesterase gamma-1 (Homo sapiens, UniProt P19174)", "sequence (P19174 whole entry)": "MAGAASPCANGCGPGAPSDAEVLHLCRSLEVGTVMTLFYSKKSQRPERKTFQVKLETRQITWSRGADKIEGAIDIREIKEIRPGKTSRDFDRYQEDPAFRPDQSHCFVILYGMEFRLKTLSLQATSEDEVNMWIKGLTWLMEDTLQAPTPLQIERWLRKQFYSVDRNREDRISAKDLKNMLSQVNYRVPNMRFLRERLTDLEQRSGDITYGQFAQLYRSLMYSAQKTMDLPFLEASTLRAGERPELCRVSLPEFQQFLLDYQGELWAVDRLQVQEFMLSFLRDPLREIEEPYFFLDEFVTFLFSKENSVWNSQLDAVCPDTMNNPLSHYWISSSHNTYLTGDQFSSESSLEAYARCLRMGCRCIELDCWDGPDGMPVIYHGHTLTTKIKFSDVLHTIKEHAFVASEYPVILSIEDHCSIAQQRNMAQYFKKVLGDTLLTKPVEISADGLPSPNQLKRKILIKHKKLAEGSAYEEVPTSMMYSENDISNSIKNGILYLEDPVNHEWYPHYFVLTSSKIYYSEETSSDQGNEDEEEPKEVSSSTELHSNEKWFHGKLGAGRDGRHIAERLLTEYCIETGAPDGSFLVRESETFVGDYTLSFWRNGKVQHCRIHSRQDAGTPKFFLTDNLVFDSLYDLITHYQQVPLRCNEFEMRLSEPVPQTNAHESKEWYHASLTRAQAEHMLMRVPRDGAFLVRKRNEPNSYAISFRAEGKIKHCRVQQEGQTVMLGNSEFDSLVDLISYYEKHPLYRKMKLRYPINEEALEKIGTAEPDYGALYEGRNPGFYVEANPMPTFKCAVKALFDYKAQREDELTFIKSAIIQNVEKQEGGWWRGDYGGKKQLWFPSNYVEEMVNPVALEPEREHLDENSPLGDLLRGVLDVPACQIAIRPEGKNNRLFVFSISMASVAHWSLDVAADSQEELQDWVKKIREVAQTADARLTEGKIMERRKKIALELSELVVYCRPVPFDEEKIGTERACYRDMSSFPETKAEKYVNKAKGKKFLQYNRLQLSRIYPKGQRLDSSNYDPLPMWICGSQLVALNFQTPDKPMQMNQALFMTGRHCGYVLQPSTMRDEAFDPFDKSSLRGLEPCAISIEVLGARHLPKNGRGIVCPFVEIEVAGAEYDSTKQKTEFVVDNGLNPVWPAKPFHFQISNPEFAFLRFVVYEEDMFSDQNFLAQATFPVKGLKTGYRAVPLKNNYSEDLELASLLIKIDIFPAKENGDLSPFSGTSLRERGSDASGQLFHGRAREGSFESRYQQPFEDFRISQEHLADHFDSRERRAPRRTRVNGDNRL", "experiment": "Counterscreen for inhibitors of phospholipase C isozymes (PLC-B3): Fluorescence-based biochemical high throughput dose response assay to identify inhibitors of phospholipase C isozymes (PLC-gamma1)."}, "[2]": {"biological_target": "1-phosphatidylinositol 4,5-bisphosphate phosphodiesterase beta-3 (Homo sapiens, UniProt Q01970)", "sequence (Q01970 whole entry)": "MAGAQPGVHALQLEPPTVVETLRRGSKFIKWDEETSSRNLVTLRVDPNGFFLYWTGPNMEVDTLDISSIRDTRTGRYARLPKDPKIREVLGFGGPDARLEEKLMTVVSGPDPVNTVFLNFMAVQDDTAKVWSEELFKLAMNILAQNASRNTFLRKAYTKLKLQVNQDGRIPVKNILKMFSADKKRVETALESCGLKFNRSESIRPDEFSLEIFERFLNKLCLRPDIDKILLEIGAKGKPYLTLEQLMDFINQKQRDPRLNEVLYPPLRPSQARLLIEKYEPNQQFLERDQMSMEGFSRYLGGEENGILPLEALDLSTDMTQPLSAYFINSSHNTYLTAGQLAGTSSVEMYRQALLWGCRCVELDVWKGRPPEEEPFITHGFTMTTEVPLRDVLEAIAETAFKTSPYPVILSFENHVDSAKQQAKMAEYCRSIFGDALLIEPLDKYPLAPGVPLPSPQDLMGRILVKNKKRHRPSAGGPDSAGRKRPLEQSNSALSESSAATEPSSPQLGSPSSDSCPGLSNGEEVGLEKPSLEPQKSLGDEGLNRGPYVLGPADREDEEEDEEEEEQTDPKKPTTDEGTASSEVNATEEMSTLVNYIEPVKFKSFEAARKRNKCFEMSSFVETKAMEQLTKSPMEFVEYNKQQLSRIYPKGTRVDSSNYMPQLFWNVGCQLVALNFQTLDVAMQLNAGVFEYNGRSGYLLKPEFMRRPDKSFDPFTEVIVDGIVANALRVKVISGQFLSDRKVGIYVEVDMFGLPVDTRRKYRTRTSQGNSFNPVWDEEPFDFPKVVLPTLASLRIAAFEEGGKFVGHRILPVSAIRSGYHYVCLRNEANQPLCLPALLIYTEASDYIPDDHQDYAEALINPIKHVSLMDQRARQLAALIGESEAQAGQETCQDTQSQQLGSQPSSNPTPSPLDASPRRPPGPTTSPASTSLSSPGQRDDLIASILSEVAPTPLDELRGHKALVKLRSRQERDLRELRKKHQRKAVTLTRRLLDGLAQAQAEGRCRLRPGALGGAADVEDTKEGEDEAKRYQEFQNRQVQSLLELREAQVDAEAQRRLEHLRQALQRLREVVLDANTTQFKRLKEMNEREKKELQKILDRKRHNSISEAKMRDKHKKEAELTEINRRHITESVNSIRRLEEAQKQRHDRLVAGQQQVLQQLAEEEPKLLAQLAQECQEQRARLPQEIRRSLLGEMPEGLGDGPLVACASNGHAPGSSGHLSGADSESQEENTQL", "experiment": "Fluorescence-based biochemical high throughput dose response assay to identify inhibitors of phospholipase C isozymes (PLC-B3)."}, "[3]": {"experiment": "blockers of HIV-1 envelope-mediated cell-cell fusion – cherry-pick, dose response (AID 652057)", "assay_type": "functional, cell-based"}, "[4]": {"experiment": "viability loss in CEM21 cells – cell-based, CellTiter-Glo luminescence, cherry-picked, cytotoxicity control for viral fusion inhibitor project, dose response (AID 652042);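 further: potency for signal decrease meaning cytotoxicity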", "assay_type": "functional"}, "[5]": {"experiment": "off-target signal loss in HeLa-CEM21 co-culture – HeLa F-luc CTL cells, cherry-picked, counter-screen for HIV-1 Env fusion inhibitor project, dose response (AID 652040);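 further: potency for signal decrease marking cytotoxic or nonspecific inhibition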", "assay_type": "functional, cell-based"}, "[6]": {"experiment": "potency of ADAM10 substrate cleavage blockers – biochemical, QFRET, dose response (AID 743254);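 further: ADAM10 enzyme with the DM2 quenched FRET peptide as substrate; EDANS fluorescence gain as the protease cuts the substrate; inhibitor potency against ADAM10 proteolytic activity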"}, "[7]": {"biological_target": "Disintegrin and metalloproteinase domain-containing protein 17 (Homo sapiens, UniProt P78536)", "experiment": "inhibition of ADAM17 substrate cleavage – biochemical, quenched FRET substrate, counter-screen for ADAM10 exosite inhibitor project, dose response (AID 743253)"}, "Protein Wnt-3a": {"biological_target": "Protein Wnt-3a (Mus musculus, UniProt P27467)", "experiment": "SAR analysis of small molecule antagonists of Gli-SUFU in a Wnt3a luminescent reporter assay.", "assay_type": "functional"}, "[8]": {"experiment": "HeLa cell viability loss – 24 h, dry powder, set 2, cytotoxicity control, dose response (AID 651774)", "assay_type": "functional, cell-based"}, "[9]": {"biological_target": "Metabotropic glutamate receptor 5 (Rattus norvegicus, UniProt P31424)", "sequence (P31424 whole entry)": "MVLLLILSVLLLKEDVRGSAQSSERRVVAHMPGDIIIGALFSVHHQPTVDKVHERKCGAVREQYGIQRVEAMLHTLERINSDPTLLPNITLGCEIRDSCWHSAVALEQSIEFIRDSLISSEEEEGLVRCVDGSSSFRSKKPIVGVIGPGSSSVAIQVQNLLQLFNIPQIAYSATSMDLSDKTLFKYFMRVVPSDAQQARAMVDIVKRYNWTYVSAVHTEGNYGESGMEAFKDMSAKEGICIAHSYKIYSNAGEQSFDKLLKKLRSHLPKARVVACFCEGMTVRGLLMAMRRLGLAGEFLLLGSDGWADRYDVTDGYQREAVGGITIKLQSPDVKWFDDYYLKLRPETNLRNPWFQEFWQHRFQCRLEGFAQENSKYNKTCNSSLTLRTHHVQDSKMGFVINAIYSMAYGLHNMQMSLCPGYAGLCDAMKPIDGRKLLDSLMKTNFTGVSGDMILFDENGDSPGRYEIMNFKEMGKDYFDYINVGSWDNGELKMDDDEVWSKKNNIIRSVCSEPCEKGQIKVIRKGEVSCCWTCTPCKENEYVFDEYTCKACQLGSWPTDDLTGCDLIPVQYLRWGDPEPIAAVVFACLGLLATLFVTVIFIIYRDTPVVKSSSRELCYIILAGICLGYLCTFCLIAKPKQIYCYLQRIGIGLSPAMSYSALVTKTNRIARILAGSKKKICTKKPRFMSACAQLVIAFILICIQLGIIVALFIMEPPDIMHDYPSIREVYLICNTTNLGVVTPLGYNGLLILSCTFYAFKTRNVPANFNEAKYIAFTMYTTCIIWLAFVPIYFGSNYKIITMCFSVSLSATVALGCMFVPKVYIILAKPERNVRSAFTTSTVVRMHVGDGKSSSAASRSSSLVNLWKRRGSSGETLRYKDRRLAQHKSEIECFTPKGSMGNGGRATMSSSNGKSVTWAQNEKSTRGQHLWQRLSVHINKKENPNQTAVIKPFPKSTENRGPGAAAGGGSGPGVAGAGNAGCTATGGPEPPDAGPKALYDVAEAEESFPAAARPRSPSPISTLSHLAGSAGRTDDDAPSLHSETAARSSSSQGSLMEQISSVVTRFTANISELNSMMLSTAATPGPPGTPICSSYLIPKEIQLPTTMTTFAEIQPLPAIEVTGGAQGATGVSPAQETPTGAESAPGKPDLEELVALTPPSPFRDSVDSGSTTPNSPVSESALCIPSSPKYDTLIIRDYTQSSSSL", "experiment": "Identification of a glycine sulfonamide based non-MPEP site positive allosteric potentiator (PAM) of mGlu5 (calcium_assay).", "assay_type": "functional"}, "[10]": {"experiment": "Counterscreen for […] of the human trace amine associated receptor 1 (TAAR1): Fluorescence-based cell-based high throughput dose response assay to identify nonselective Ga16 agonists.", "assay_type": "functional"}, "[11]": {"biological_target": "T1, Trace amine-associated receptor 1 (Homo sapiens, UniProt Q96RJ0)", "T1 sequence (Q96RJ0 whole entry)": "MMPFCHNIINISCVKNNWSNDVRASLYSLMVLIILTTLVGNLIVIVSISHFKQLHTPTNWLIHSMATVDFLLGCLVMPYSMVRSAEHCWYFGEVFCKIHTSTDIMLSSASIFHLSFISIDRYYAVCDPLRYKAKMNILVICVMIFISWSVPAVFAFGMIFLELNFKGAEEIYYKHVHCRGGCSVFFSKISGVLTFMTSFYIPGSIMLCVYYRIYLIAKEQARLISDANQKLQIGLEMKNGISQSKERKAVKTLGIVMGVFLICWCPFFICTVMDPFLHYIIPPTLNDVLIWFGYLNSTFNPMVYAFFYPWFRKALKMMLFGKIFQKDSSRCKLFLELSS", "experiment": "Fluorescence-based cell-based high throughput dose response assay to identify antagonists of the human trace amine associated receptor 1 (TAAR1).", "assay_type": "functional"}, "[12]": {"experiment": "Counterscreen for antagonists of the human trace amine associated receptor 1 (hTAAR1): Fluorescence-based cell-based high throughput dose response assay to identify nonselective Ga16 antagonists.", "assay_type": "functional"}, "[13]": {"biological_target": "T1, Trace amine-associated receptor 1", "experiment": "Counterscreen for antagonists of the human trace amine associated receptor 1 (hTAAR1): Fluorescence-based cell-based high throughput dose response assay to identify TAAR1 Agonists.", "assay_type": "functional"}, "HEK293": {"tested_on": "HEK293", "experiment": "viability loss in HEK293T cells – cell-based, ATP luminescence, cherry-pick samples, cytotoxicity control, dose response (AID 687005);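 further: cells exposed to compound for 48 hours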", "assay_type": "functional", "conditions": "Homo sapiens"}, "[14]": {"experiment": "HEK293 Cytotoxicity Assay Measured in Cell-Based System Using Plate Reader - 7071-01_Inhibitor_Dose_CherryPick_Activity_Set2.", "assay_type": "functional"}, "[15]": {"biological_target": "T2, Methionyl-tRNA synthetase, putative (Trypanosoma brucei brucei, UniProt Q38C91)", "T2 sequence (Q38C91 whole entry)": "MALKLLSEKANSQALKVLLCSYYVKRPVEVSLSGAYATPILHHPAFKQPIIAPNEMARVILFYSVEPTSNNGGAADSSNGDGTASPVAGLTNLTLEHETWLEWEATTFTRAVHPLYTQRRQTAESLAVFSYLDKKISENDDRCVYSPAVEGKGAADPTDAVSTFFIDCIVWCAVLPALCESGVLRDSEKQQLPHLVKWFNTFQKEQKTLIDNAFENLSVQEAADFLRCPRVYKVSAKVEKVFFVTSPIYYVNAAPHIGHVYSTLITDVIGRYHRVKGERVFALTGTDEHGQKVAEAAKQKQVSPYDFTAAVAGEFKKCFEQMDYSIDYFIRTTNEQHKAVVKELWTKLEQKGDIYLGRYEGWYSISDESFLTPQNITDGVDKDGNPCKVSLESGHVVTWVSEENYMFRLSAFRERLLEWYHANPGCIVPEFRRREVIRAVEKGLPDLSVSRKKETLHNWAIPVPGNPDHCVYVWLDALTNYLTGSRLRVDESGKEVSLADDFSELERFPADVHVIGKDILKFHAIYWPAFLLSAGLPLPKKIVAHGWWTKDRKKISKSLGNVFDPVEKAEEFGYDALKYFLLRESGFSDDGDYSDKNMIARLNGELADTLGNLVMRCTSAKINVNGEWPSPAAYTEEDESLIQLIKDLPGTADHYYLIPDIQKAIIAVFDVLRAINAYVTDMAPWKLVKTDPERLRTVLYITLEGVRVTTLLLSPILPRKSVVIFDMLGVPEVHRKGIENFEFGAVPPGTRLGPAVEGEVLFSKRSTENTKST", "assay_type": "functional, Trypanosoma brucei brucei strain 927/4 GUTat10.1"}, "[16]": {"experiment": "Counterscreen for inhibitors of Trypanosoma brucei methionyl tRNA synthetase (MetRS): Luminescence-based cell-based high throughput dose response assay to identify compounds that are cytotoxic to Jurkat human T lymphocyte cells.", "assay_type": "functional"}, "[17]": {"biological_target": "T2, Methionyl-tRNA synthetase, putative", "assay_type": "functional, Trypanosoma brucei brucei strain 927/4 GUTat10.1", "remark": "listed apart in the source"}, "[18]": {"experiment": "Late stage counterscreen for inhibitors of Trypanosoma brucei methionyl tRNA synthetase (MetRS): Luminescence-based cell-based high throughput dose response assay to identify compounds that are cytotoxic to Jurkat human T lymphocyte cells.", "assay_type": "functional"}, "[19]": {"biological_target": "Lysosomal acid glucosylceramidase (Homo sapiens, UniProt P04062)", "experiment": "Dose response cell-based high throughput screening assay to identify enhancers of beta-glucosidase activity. [Related pubchem assays: 784 ]", "assay_type": "functional"}, "cells [20]": {"experiment": "cells", "conditions": "A549"}, "cells [21]": {"experiment": "cells", "conditions": "HEK293"}, "[22]": {"experiment": "HepG2 cell viability loss – cherry-picked samples, cytotoxicity control, dose response (AID 1053183)", "assay_type": "functional, cell-based"}, "[23]": {"experiment": "HEK293 cell viability loss – cherry-picked samples, cytotoxicity control, dose response (AID 1053185)", "assay_type": "functional, cell-based"}, "NS3": {"biological_target": "NS3 (Hepatitis C virus, UniProt A3EZJ3)", "sequence (A3EZJ3 whole entry)": "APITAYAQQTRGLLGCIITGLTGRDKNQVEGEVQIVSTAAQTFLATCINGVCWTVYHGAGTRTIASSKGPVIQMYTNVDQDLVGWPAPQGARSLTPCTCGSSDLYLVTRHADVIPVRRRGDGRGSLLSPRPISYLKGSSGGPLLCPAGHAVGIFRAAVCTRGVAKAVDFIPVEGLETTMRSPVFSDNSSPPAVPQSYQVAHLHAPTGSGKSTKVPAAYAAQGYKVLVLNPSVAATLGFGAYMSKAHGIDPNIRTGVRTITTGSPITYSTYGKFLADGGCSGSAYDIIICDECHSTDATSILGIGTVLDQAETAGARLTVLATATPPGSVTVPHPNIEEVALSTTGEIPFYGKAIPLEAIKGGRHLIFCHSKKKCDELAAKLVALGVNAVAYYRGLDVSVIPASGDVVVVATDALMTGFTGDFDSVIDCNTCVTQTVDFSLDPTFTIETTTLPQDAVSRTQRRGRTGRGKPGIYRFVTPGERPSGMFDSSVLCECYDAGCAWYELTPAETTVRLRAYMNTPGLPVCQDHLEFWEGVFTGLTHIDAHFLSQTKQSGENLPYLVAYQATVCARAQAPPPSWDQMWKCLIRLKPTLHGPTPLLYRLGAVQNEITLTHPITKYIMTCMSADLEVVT", "experiment": "NS3h DNA-binding inhibition IC50 – biochemical, fluorescence polarization, ChemBridge library, dose response (AID 743264)"}},
  "note": "Activity calls are given as the source filed them.",
  "data": [
    {"smiles": "CCOC(=O)/C(C#N)=C1/C=CN(C)C=N1", "values": [
      {"measurement": "IC50", "setting": "[1]", "result": "> 123 µM (inactive)"},
      {"measurement": "IC50", "setting": "[2]", "result": "> 123 µM (inactive)"}
    ]},
    {"smiles": "COc1cc2c(cc1OC)C(=O)N1[C@H]3c4cc(Cl)ccc4OC[C@@H]3[C@H](c3ccccc3)[C@]1(C)C(=O)N2", "values": [
      {"measurement": "AC50", "setting": "[3]", "result": "8.86 µM (active)"},
      {"measurement": "AC50", "setting": "[4]", "result": "53.4 µM (active)"},
      {"measurement": "AC50", "setting": "[5]", "result": "21 µM (active)"},
      {"measurement": "IC50", "setting": "[6]", "result": "> 69.5 µM (inactive)"},
      {"measurement": "IC50", "setting": "[7]", "result": "> 69.5 µM (inactive)"}
    ]},
    {"smiles": "O=C(Nc1cc(N2CCCCC2)ncn1)c1ccc(Br)o1", "values": [
      {"measurement": "IC50", "setting": "Protein Wnt-3a", "result": "> 21.8 µM (inactive)"}
    ]},
    {"smiles": "O=C(Nc1ccc(-c2ccccc2)cc1)NC1CCCC1", "values": [
      {"measurement": "AC50", "setting": "[8]", "result": "68 µM (active)"}
    ]},
    {"smiles": "CC(C(=O)Nc1cc(Cl)ccn1)N(c1ccccc1Cl)S(C)(=O)=O", "note": "(stereo unspecified)", "values": [
      {"measurement": "EC50", "setting": "[9]", "result": "10 µM (inconclusive)"}
    ]},
    {"smiles": "COC(=O)Cc1nnn2c1[C@H](C)[C@H](c1ccccc1Br)OCC2", "values": [
      {"measurement": "EC50", "setting": "[10]", "result": "> 29.9 µM (inactive)"},
      {"measurement": "IC50", "setting": "[11]", "result": "1.28 µM (active)"},
      {"measurement": "IC50", "setting": "[12]", "result": "> 29.9 µM (inactive)"},
      {"measurement": "EC50", "setting": "[13]", "result": "> 29.9 µM (inactive)"}
    ]},
    {"smiles": "COc1ccccc1C#Cc1ccc2c(c1)O[C@@H](CN(C)C(C)=O)[C@@H](C)CN([C@H](C)CO)S2(=O)=O", "values": [
      {"measurement": "AC50", "setting": "HEK293", "result": "9.59 µM (active)"},
      {"measurement": "AC50", "setting": "[14]", "result": "9.59 µM (active)"}
    ]},
    {"smiles": "CC(=O)c1c[nH]c(C(=O)NCc2cccc(C(F)(F)F)c2)c1", "values": [
      {"measurement": "IC50", "setting": "[15]", "result": "2.07 µM (active)"},
      {"measurement": "IC50", "setting": "[16]", "result": "83.3 µM (inactive)"},
      {"measurement": "IC50", "setting": "[17]", "result": "1.16 µM (active)"},
      {"measurement": "IC50", "setting": "[18]", "result": "> 83.3 µM (inactive)"}
    ]},
    {"smiles": "Cc1cc2c(C)cc(=O)oc2c2c1NCCC2", "values": [
      {"measurement": "EC50", "setting": "[19]", "result": "> 50 µM (not active)"},
      {"measurement": "AC50", "setting": "cells [20]", "result": "> 52 µM (inactive)"},
      {"measurement": "AC50", "setting": "cells [21]", "result": "> 52 µM (inactive)"}
    ]},
    {"smiles": "N#Cc1cccc(-c2ccc([C@H]3[C@@H]4CN(C(=O)Nc5ccc(C(F)(F)F)cc5)C[C@H]3N4)cc2)c1", "values": [
      {"measurement": "AC50", "setting": "[22]", "result": "36.1 µM (active)"},
      {"measurement": "AC50", "setting": "[23]", "result": "> 52 µM (inactive)"}
    ]},
    {"smiles": "Cc1ccc(C)n1-c1cc(C(=O)O)ccc1O", "values": [
      {"measurement": "IC50", "setting": "NS3", "result": "50.4 µM (active)"}
    ]}
  ]
}
